Measured values as given in patent publication US7759385B2, “4-substituted 1-aminocyclohexane compounds for utilization as ORL1-receptor and mu-opiate receptor ligands” (priority 2002, dated 2010).

Target: human μ opiate receptor (Homo sapiens, UniProt P35372)
Test: μ opiate receptor binding assay, membrane preparation of CHO-K1 cells, [3H]-naloxone (or DAMGO) displacement
Details: radioligand [3H]-naloxone 1 nmole/l; Cheng-Prusoff

human μ opiate receptor, sequence (P35372 whole entry): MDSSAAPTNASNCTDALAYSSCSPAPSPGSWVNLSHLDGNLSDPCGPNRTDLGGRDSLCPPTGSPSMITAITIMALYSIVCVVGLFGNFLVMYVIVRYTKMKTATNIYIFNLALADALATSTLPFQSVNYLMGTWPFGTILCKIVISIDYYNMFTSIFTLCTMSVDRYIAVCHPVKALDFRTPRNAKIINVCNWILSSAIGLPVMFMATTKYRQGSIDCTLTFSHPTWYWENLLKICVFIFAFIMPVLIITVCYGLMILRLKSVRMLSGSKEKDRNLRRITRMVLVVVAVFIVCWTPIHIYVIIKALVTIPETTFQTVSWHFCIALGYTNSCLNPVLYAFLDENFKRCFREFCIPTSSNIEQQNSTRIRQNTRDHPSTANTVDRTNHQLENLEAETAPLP

For `CN(C)C1(c2ccccc2)CCC(NC(=O)N2CCC(C3C=Nc4ccc(F)cc43)CC2)CC1` (stereo not shown) [Example 34, 4-(5-fluoro-1H-indol-3-yl)piperidine-1-carboxylic acid-(4-dimethylamino-4-phenylcyclohexyl)-amide], the Ki was 120 nM.
